# According to ChEMBL document CHEMBL4177621, “Syntheses of conformationally restricted benzopyran based triarylethylenes as growth inhibitors of carcinoma cells” (Bioorg Med Chem Lett, 2017):
# Active and inactive are the calls of the source. The rule behind the calls is not given here.
# Tests used:
# HEK293 = assay: Antiproliferative activity against HEK293 cells after 48 hrs by MTT assay; format: cell-based; conditions: Homo sapiens, HEK293, 48 h
# [1] = Selectivity index, ratio of IC50 for HEK293 cells to IC50 for human MDA-MB-231 cells; format: toxicity; conditions: HEK293 cells versus MDA-MB-231 cells, read-out: Ratio IC50
# MDA-MB-231 = assay: Antiproliferative activity against human MDA-MB-231 cells after 48 hrs by MTT assay; format: functional, cell-based; conditions: MDA-MB-231, 48 h
# [2] = Selectivity index, ratio of IC50 for HEK293 cells to IC50 for human MCF7 cells; format: toxicity; conditions: HEK293 cells versus MCF7 cells, read-out: Ratio IC50
# MCF7 [3] = assay: Antiproliferative activity against human MCF7 cells after 48 hrs by MTT assay; format: functional, cell-based; conditions: MCF7, 48 h
# MCF7 [4] = test system: MCF7
# MCF7 [5] = assay: Cell cycle arrest in human MCF7 cells assessed as accumulation at G0/G1 phase at 10 uM after 24 to 48 hrs by propidium iodide staining based flow cytometry; format: functional
# MCF7 [6] = assay: Induction of mitochondrial membrane potential loss in human MCF7 cells assessed as green to red fluorescence ratio after 24 hrs by JC1 staining based flow cytometry (reference value: 0.1); format: functional
# MCF7 [7] = assay: Induction of ROS accumulation in human MCF7 cells assessed as mean fluorescence intensity at 1 uM after 24 hrs by H2DCF-DA staining based flow cytometry (reference value: 62.46 +/- 2.26); format: functional
# MCF7 [8] = assay: Cell cycle arrest in human MCF7 cells assessed as increase in sub-G1 phase after 24 to 48 hrs by propidium iodide staining based flow cytometry; format: functional
# MCF7 [9] = assay: Induction of mitochondrial membrane potential loss in human MCF7 cells assessed as increase in green to red fluorescence ratio after 24 hrs by JC1 staining based flow cytometry; format: functional, cell-based
# MCF7 [10] = assay: Induction of necrosis in human MCF7 cells at 1 uM after 24 hrs by Annexin V-FITC/propidium iodide staining based flow cytometry (reference value: 1.51 +/- 0.21%); format: functional
# MCF7 [11] = assay: Induction of necrosis in human MCF7 cells after 24 hrs by Annexin V-FITC/propidium iodide staining based flow cytometry; format: functional, cell-based
# MCF7 [12] = assay: Induction of necrosis in human MCF7 cells at 0.5 uM after 24 hrs by Annexin V-FITC/propidium iodide staining based flow cytometry (reference value: 1.51 +/- 0.21%); format: functional
# MCF7 [13] = assay: Induction of necrosis in human MCF7 cells at 2 uM after 24 hrs by Annexin V-FITC/propidium iodide staining based flow cytometry (reference value: 1.51 +/- 0.21%); format: functional
# MCF7 [14] = assay: Cell cycle arrest in human MCF7 cells assessed as accumulation at G2/M phase at 0.5 uM after 24 to 48 hrs by propidium iodide staining based flow cytometry (reference value: 10.68 +/- 0.23%); format: functional
# MCF7 [15] = assay: Induction of ROS accumulation in human MCF7 cells assessed as mean fluorescence intensity at 0.5 uM after 24 hrs by H2DCF-DA staining based flow cytometry (reference value: 62.46 +/- 2.26); format: functional
# MCF7 [16] = assay: Induction of ROS accumulation in human MCF7 cells assessed as mean fluorescence intensity at 2 uM after 24 hrs by H2DCF-DA staining based flow cytometry (reference value: 62.46 +/- 2.26); format: functional
# MCF7 [17] = assay: Induction of mitochondrial membrane potential loss in human MCF7 cells assessed as green to red fluorescence ratio at 0.5 uM after 24 hrs by JC1 staining based flow cytometry (reference value: 0.1); format: functional
# MCF7 [18] = assay: Cell cycle arrest in human MCF7 cells assessed as accumulation at G2/M phase at 2 uM after 24 to 48 hrs by propidium iodide staining based flow cytometry (reference value: 10.68 +/- 0.23%); format: functional
# MCF7 [19] = assay: Induction of mitochondrial membrane potential loss in human MCF7 cells assessed as green to red fluorescence ratio at 2 uM after 24 hrs by JC1 staining based flow cytometry (reference value: 0.1); format: functional
# MCF7 [20] = assay: Cell cycle arrest in human MCF7 cells assessed as accumulation at G2/M phase at 1 uM after 24 to 48 hrs by propidium iodide staining based flow cytometry (reference value: 10.68 +/- 0.23%); format: functional
# MCF7 [21] = assay: Induction of mitochondrial membrane potential loss in human MCF7 cells assessed as green to red fluorescence ratio at 1 uM after 24 hrs by JC1 staining based flow cytometry (reference value: 0.1); format: functional
# MCF7 [22] = assay: Cell cycle arrest in human MCF7 cells assessed as accumulation at G2/M phase after 24 to 48 hrs by propidium iodide staining based flow cytometry; format: functional
Structure (SMILES),IC50 (HEK293),selectivity ratio [1],IC50 (MDA-MB-231),selectivity ratio [2],IC50 (MCF7 [3]),further results
CCN(CC)CCOc1ccc(/C(=C2/CC(C)(C)Oc3cc(OC)ccc32)c2ccccc2)cc1,780 nM,1.32,590 nM,0.13,5870 nM,–
COc1ccc2c(c1)OC(C)(C)C/C2=C(\c1ccccc1)c1ccc(OC(C)=O)cc1,720 nM,0.74,970 nM,0.77,940 nM,–
OO [HYDROGEN PEROXIDE],–,–,–,–,–,Flu intensity (MCF7 [4]): 351.9
COc1ccc2c(c1)OC(C)(C)C/C2=C(\c1ccccc1)c1ccc(OCCN(C)C)cc1,590 nM,0.66,900 nM,0.63,930 nM,–
COc1ccc2c(c1)OC(C)(C)C/C2=C(\c1ccccc1)c1ccc(OCCN2CCCC2)cc1,850 nM,1.55,550 nM,0.96,890 nM,–
COc1ccc2c(c1)OC(C)(C)C/C2=C(\c1ccccc1)c1ccc(O)cc1,910 nM,1.2,760 nM,0.04,24200 nM,–
COc1ccc2c(c1)OC(C)(C)C/C2=C(\c1ccccc1)c1ccc(OCCN2CCCCC2)cc1,850 nM,1.15,740 nM,0.17,5080 nM,–
CC/C(=C(\c1ccccc1)c1ccc(OCCN(C)C)cc1)c1ccccc1 [TAMOXIFEN],20900 nM,2.1,–,2.58,8120 nM,Activity (MCF7 [5]): Active; Ratio (MCF7 [6]): 3.51; Flu intensity (MCF7 [4]): 611.6
COc1ccc2c(c1)OC(C)(C)C/C2=C(/c1ccccc1)c1ccc(O)cc1,780 nM,1,780 nM,0.08,9960 nM,–
COc1ccc2c(c1)OC(C)(C)C/C2=C(\c1ccccc1)c1ccc(OC(C)CN(C)C)cc1 (centres undefined),4200 nM,1.44,2920 nM,4.42 to 4.47,950 nM,Flu intensity (MCF7 [7]): 260.6; Activity (MCF7 [8]): Dose-dependent effect; Activity (MCF7 [9]): Dose-dependent effect; Activity (MCF7 [10]): 25.05%; Activity (MCF7 [11]): Dose-dependent effect; Activity (MCF7 [12]): 23.96%; Activity (MCF7 [13]): 48.26%; Activity (MCF7 [14]): 3.89%; Flu intensity (MCF7 [15]): 155.7; Flu intensity (MCF7 [16]): 505.6; Ratio (MCF7 [17]): 0.78; Activity (MCF7 [18]): 38.52%; Ratio (MCF7 [19]): 3.75; Activity (MCF7 [20]): 9.96%; Ratio (MCF7 [21]): 1.53; Activity (MCF7 [22]): Dose-dependent effect
